Data published in US12122761B2, “2-azaspiro[3.4]octane derivatives as M4 agonists” (NOVARTIS AG, priority 2019, dated 2024).
Read-outs that look alike come from different tables or passages of the source.

Assays:
[1] = target: T1, human cloned CHRM2 receptor (M2_CHO cells) (Homo sapiens, UniProt P08172); experiment: CHRM2 Ca++ Flux Assay (agonist mode, FDSS 7000EX); assay type: cell-based; details: for M2 FDSS PA: Percent Activity measured to EC100 of Carbachol; for EC50: agonist mode, geometric mean if tested more than once, read-out: M2 FDSS EC50
T1 construct: expressed in transfected cells; host or cells: CHO-K1
T1 sequence (P08172 1-466): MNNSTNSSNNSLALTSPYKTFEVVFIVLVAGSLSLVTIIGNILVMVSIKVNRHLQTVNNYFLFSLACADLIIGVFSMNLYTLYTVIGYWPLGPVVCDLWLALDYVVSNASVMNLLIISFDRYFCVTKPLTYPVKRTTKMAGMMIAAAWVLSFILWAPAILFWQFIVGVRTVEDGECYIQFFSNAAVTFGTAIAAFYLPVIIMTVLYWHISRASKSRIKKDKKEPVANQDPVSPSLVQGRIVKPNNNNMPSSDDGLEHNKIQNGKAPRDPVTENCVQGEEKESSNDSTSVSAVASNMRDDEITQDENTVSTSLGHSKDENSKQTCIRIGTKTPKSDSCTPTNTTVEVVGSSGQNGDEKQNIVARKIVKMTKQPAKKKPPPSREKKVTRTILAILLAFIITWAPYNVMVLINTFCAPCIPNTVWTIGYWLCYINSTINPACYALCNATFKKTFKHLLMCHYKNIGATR
Description: (§1) The above examples were characterized by measuring the intracellular mobilization of Ca++ ions caused by signaling events mediated by the receptor. The Intra-cellular Calcium flux levels were captured by the highly sensitive Ca++ indicator, Calcium Assay Kit (BD Biosciences, Catalog Number 640178). The fluorescent activity from all receptors were monitored by the fluorescent imager, FDSS 7000EX (Hamamatsu) over a span of 3 minutes.
(§2) CHO-K1 cells stably expressing the human cloned CHRM2 receptor (M2_CHO cells) were grown and maintained in a monolayer culture with F12/HAM (Life Technologies) supplemented with 10% Fetal Bovine Serum, 1× Pen-Strep, and 0.4 mg/mL Geneticin in a humidified atmosphere (5% CO2) at 37° C. The cultures were grown to 80-9 0% confluency in T150 flasks (Corning) and washed with 1×DPBS and lifted with 0.05% Trypsin (Life Technologies). The cells were then spun (1K rpm, 3 minutes) and frozen using Recovery Cell Culture Freezing Media (Gibco Technologies). Cells were stored in liquid nitrogen and thawed a day before the assay.
Prior to the day of the assay, stable M2 CHO cells were thawed and plated on Greiner 384 well TC treated plate at a density of 12K cells/well and kept overnight in a humidified atmosphere (5% CO2) at 37° C. The following day, the cells were loaded with Ca^++ dye (BD Biosciences) using Loading Buffer (HBSS +Ca/+Mg, 20 mM HEPES, 2.5 mM Probenecid) and placed back in cell incubator for a minimum of 1 hour and maximum of 2 hours. After incubation, the dye was replaced with Assay Buffer (HBSS −Ca/−Mg, 20 mM HEPES, 2.5 mM Probenecid) supplemented with 20 μM ATP (Sigma Aldrich) and kept at room temperature for 60 minutes prior before running on cell imager. The FDSS 7000EX (Hamamatsu) was used to acquire Ca^++ traces from cells in response to compound treatment and the data was used to generate dose response curves in agonist mode. All compounds were serially diluted in DMSO then prepared in Assay Buffer for Ca^++ flux studies. The dose response curves were generated from the average of triplicate wells obtained from each data point and used a non-linear regression of four parameter dose response algorithm. The Percent Activity (PA) was measured to EC100 of Carbachol.

[2] = target: T2, Cloned human M1 receptor (CHRM1) stably expressed in HEK293 cells (Homo sapiens, UniProt P11229); experiment: CHRM1 Ca++ Flux Assay (agonist mode, FDSS 7000EX); assay type: cell-based; details: for M1 FDSS PA: Percent Activity; for EC50: geometric mean if tested more than once
T2 construct: expressed in transfected cells; host or cells: HEK293
T2 sequence (P11229 1-460): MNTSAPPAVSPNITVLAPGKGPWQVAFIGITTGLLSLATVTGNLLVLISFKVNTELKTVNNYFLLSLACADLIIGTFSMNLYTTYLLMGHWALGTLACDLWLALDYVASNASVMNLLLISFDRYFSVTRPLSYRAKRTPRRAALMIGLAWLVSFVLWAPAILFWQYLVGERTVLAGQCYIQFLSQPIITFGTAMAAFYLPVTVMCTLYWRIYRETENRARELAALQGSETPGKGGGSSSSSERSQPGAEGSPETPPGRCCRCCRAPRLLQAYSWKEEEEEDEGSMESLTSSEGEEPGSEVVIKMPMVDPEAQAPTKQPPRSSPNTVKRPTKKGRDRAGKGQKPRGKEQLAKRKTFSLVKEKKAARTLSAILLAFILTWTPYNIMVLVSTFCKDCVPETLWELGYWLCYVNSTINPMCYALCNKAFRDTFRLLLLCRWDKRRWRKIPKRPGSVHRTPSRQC
Description: as §1
as §2, with “Cloned human M1 receptor (CHRM1) was stably expressed in HEK293” for “CHO-K1”, “and” for “stably expressing the human cloned CHRM2 receptor (M2_CHO cells)”, “DMEM/High Glucose” for “F12/HAM”, “0.5” for “0.4”, “90%” for “80-9 0%”
Prior to the day of the assay, stable HEK293 M1 cells were thawed and plated on 384 well black walled clear bottom TC treated plates (Greiner Cat #781091) at 25K cells/well with DMEM/High Glucose supplemented with 10% FBS (Hyclone) Pen-Strep (Life Technologies) and kept overnight in a humidified atmosphere (5% CO2) at 37° C. The following day, cells were loaded with 20 uL Ca^++ dye (BD Biosciences) using Loading Buffer (HBSS +Ca/+Mg, 20 mM HEPES) and placed back in cell incubator for a minimum of 1 hour. The dye was replaced with 45 μL Assay Buffer (HBSS −Ca/−Mg, 20 mM HEPES) and kept at room temperature prior to running on cell imager. Compounds were prepared in Assay Buffer and 5 uL was added to the cells. The FDSS 7000EX (Hamamatsu) was used to acquire Ca++ traces for 3 minutes from cells treated with 11 point dose in triplicate in order to generate dose response curves in agonist mode. All compounds were serially diluted in DMSO then prepared in Assay Buffer for Ca^++ flux studies. The dose response curves were generated from the average of triplicate wells obtained from each data point and used a non-linear regression of four parameter dose response algorithm. The Percent Activity (PA) was measured to EC100 of Carbachol.

M2 FDSS PA [1]	M1 FDSS PA [2]	EC50 [2]	EC50 [1]	Structure (SMILES)	M2 FDSS PA ([1]; citrate salt)	EC50 ([1]; citrate salt)
0%	69%	302 nM		O[C@H]1CC[C@@H](c2ccccc2C2CCN([C@@H]3CCC4(C3)CN(c3nnco3)C4)CC2)CC1 (single isomer, unassigned) [Example 2N, (1S,4s)-4-(2-(1-((R)-2-(1,3,4-oxadiazol-2-yl)-2-azaspiro[3.4]octan-6-yl)piperidin-4-yl)phenyl)cyclohexan-1-ol or (1R,4r)-4-(2-(1-((R)-2-(1,3,4-oxadiazol-2-yl)-2-azaspiro[3.4]octan-6-yl)piperidin-4-yl)phenyl)cyclohexan-1-ol]		
28%	77%	81 nM	90 nM	OC1CCC(c2ccccc2C2CCN([C@@H]3CCC4(C3)CN(c3nnco3)C4)CC2)CC1 (single isomer, unassigned) [Example 2O, (1s,4r)-4-(2-(1-((R)-2-(1,3,4-oxadiazol-2-yl)-2-azaspiro[3.4]octan-6-yl)piperidin-4-yl)phenyl)cyclohexan-1-ol or (1r,4r)-4-(2-(1-((R)-2-(1,3,4-oxadiazol-2-yl)-2-azaspiro[3.4]octan-6-yl)piperidin-4-yl)phenyl)cyclohexan-1-ol]		
0%	57%	139 nM		O=C(N1CC2(CC[C@@H](N3CCC(c4ccccc4OCCC(F)(F)F)CC3)C2)C1)C1(F)CC1 (single isomer, unassigned) [Example 7AA, (R)-(1-fluorocyclopropyl)(6-(4-(2-(3,3,3-trifluoropropoxy)phenyl)piperidin-1-yl)-2-azaspiro[3.4]octan-2-yl)methanone or (S)-(1-fluorocyclopropyl)(6-(4-(2-(3,3,3-trifluoropropoxy)phenyl)piperidin-1-yl)-2-azaspiro[3.4]octan-2-yl)methanone]		
0%	84%	10 nM		O=C(N1CC2(CC[C@@H](N3CCC(c4ccccc4OCc4ncccn4)CC3)C2)C1)C1(F)CC1 (single isomer, unassigned) [Example 7M, (R)-(1-fluorocyclopropyl)(6-(4-(2-(pyrimidin-2-ylmethoxy)phenyl)piperidin-1-yl)-2-azaspiro[3.4]octan-2-yl)methanone or (S)-(1-fluorocyclopropyl)(6-(4-(2-(pyrimidin-2-ylmethoxy)phenyl)piperidin-1-yl)-2-azaspiro[3.4]octan-2-yl)methanone]		
0%	45%	22 nM		O=C(N1CC2(CC[C@@H](N3CCC(c4ccccc4OCCO)CC3)C2)C1)C1(F)CC1 (single isomer, unassigned) [Example 7N, (R)-(1-fluorocyclopropyl)(6-(4-(2-(2-hydroxyethoxy)phenyl)piperidin-1-yl)-2-azaspiro[3.4]octan-2-yl)methanone or (S)-(1-fluorocyclopropyl)(6-(4-(2-(2-hydroxyethoxy)phenyl)piperidin-1-yl)-2-azaspiro[3.4]octan-2-yl)methanone]		
				O=C(C1COC1)N1CC2(CC[C@H](N3CCC(c4ccccc4OC(F)F)CC3)C2)C1.O=C(O)CC(O)(CC(=O)O)C(=O)O (single isomer, unassigned) [Example 8E, (S)-(6-(4-(2-(difluoromethoxy)phenyl)piperidin-1-yl)-2-azaspiro[3.4]octan-2-yl)(oxetan-3-yl)methanone or (R)-(6-(4-(2-(difluoromethoxy)phenyl)piperidin-1-yl)-2-azaspiro[3.4]octan-2-yl)(oxetan-3-yl)methanone citrate salt]	26%	96 nM
				O=C(C1COC1)N1CC2(CC[C@H](N3CCC(c4ccccc4OC(F)F)CC3)C2)C1.O=C(O)CC(O)(CC(=O)O)C(=O)O (single isomer, unassigned) [Example 8F, (S)-(6-(4-(2-(difluoromethoxy)phenyl)piperidin-1-yl)-2-azaspiro[3.4]octan-2-yl)(oxetan-3-yl)methanone or (R)-(6-(4-(2-(difluoromethoxy)phenyl)piperidin-1-yl)-2-azaspiro[3.4]octan-2-yl)(oxetan-3-yl)methanone citrate salt]	0%	

Structure (SMILES)	M2 FDSS PA [1]	M1 FDSS PA [2]	EC50 [2]	EC50 [1]	M2 FDSS PA ([1]; citrate salt)	EC50 ([1]; citrate salt)
CC(C)(O)CCOc1ccccc1C1CCN([C@@H]2CCC3(C2)CN(C(=O)C2(F)CC2)C3)CC1 (single isomer, unassigned) [Example 7BB, (R)-(1-fluorocyclopropyl)(6-(4-(2-(3-hydroxy-3-methylbutoxy)phenyl)piperidin-1-yl)-2-azaspiro[3.4]octan-2-yl)methanone or (S)-(1-fluorocyclopropyl)(6-(4-(2-(3-hydroxy-3-methylbutoxy)phenyl)piperidin-1-yl)-2-azaspiro[3.4]octan-2-yl)methanone]	0%	55%	13 nM			
COC(C)(C)CCOc1ccccc1C1CCN([C@@H]2CCC3(C2)CN(C(=O)C2(F)CC2)C3)CC1 (single isomer, unassigned) [Example 7FF, (R)-(1-fluorocyclopropyl)(6-(4-(2-(3-methoxy-3-methylbutoxy)phenyl)piperidin-1-yl)-2-azaspiro[3.4]octan-2-yl)methanone or (S)-(1-fluorocyclopropyl)(6-(4-(2-(3-methoxy-3-methylbutoxy)phenyl)piperidin-1-yl)-2-azaspiro[3.4]octan-2-yl)methanone]	0%	7%	182 nM			
